From patent US9410158B2, “Genetically modified yeast species, and fermentation processes using genetically modified yeast” (Cargill Incorporated, priority 2003, dated 2016)

Tested on: xylose isomerase enzyme (PXYLA)
Test: Inhibition of PXYLA activity in strain CD861 using xylitol (Ex. 8E)
Format: biochemical, Piromyces sp. E2
Procedure: Strain CD861 was grown in xylose media containing varying concentrations of xylitol, a known xylose isomerase inhibitor.

change of Km for the xylose isomerase enzyme (xylitol increased from 0 to 0.25 mM): doubled
change of Km for the xylose isomerase enzyme (xylitol increased to 0.50 mM): doubled again
SMILES: OC[C@@H](O)[C@H](O)[C@@H](O)CO [xylitol]
